{"source": "patent US8293743B2", "about": "“Substituted imidazo[1,2-A]pyrazine derivatives as alpha-helix mimetics and method relating to the treatment of cancer stem cells” (Choongwae Pharma Corporation, priority 2005, dated 2012)", "key": {"MDR-1 [1]": {"system": "MDR-1", "assay": "MDR-1/luciferase reporter activity in MES-SA/Dx5 cells", "format": "cell-based, human", "conditions": "read-out: IC50, reduction of MDR-1 luciferase activity", "text": "(§1) To investigate differential coactivator usage for the transcriptional regulation of the MDR-1 gene in MES-SA cells, the chemogenomic tool ICG-001 was used (Emami et al. 2004)."}, "MES-SA/Dx5 cells": {"system": "MES-SA/Dx5 cells", "assay": "Cell proliferation/viability of MES-SA/Dx5 cells, Doxorubicin +/- ICG-001", "format": "cell-based, human", "conditions": "in combination with Doxorubicin", "description": "(§2) MDR transporters are believed to play important roles in protecting cancer stem cells from chemotherapy (Dean et al, Nat. Rev. Cancer 5, 275, 2005). To further study this phenomenon, a series of experiments was performed."}, "CP70": {"system": "CP70", "assay": "Colony inhibition assay, CP70", "format": "cell-based", "conditions": "for Average plating efficiency: CP70, 80 cells/well", "description": "(§3) Colony inhibition assays were performed, in which plated cells from A2780, CP70, IGROV-1 and B16 cells were exposed to doses of ICG-001 within the range of 0.625 to 10 μM. An exemplary experiment is illustrated in Table 3.\n(§4) Table 4 presents data on the plating efficiencies of cultured cells from A2780, CP70, IGROV-1 and B16 in control wells as well as in wells exposed to ICG-001.\n(§5) The cells were tested at range of concentrations of ICG-001 between 0.625 and 10 μM and at cisplatin concentrations between 1.25 to 20 μM. All three ovarian cancer lines tested (A2780, CP70 and IGROV-1) were more sensitive to ICG-001 than to cisplatin. […] The cisplatin-sensitive lines, IGROV-1 and A2780, had similar sensitivity to ICG-001 as to cisplatin (FIGS. 23A and B)."}, "MDR-1 promoter": {"system": "MDR-1 promoter", "assay": "ChIP assay of coactivator occupancy of the MDR-1 promoter in MES-SA/Dx5 cells", "format": "cell-based, human", "text": "Similar ICG-001 induced p300 recruitment at the survivin promoter has been previously observed, which was associated with recruitment of proteins associated with transcriptional repression (i.e., HDAC6 and PML) (H Ma et al. Oncogene 2005). A proposed non-binding mechanism is repressive transcriptional apparatus recruitment to the MDR-1 promoter by p300."}, "A2780": {"system": "A2780", "assay": "Colony inhibition assay, A2780", "format": "cell-based", "conditions": "for Average plating efficiency: A2780, 80 cells/well", "description": "as §3, §4, §5"}, "MDR-1 [2]": {"system": "MDR-1", "assay": "MDR-1 protein expression in MES-SA/Dx5 cells (immunofluorescence, immunoblotting)", "format": "cell-based, human", "conditions": "immunofluorescence and immunoblotting, dose dependent", "text": "as §1"}, "CBP-β-catenin": {"target": "T1, CBP-β-catenin (Homo sapiens, UniProt Q92793)", "T1 construct": "tested using the TOPFlash reporter system in SW480 cells; endogenous in cells; host or cells: SW480 cells", "T1 sequence (Q92793 whole entry)": "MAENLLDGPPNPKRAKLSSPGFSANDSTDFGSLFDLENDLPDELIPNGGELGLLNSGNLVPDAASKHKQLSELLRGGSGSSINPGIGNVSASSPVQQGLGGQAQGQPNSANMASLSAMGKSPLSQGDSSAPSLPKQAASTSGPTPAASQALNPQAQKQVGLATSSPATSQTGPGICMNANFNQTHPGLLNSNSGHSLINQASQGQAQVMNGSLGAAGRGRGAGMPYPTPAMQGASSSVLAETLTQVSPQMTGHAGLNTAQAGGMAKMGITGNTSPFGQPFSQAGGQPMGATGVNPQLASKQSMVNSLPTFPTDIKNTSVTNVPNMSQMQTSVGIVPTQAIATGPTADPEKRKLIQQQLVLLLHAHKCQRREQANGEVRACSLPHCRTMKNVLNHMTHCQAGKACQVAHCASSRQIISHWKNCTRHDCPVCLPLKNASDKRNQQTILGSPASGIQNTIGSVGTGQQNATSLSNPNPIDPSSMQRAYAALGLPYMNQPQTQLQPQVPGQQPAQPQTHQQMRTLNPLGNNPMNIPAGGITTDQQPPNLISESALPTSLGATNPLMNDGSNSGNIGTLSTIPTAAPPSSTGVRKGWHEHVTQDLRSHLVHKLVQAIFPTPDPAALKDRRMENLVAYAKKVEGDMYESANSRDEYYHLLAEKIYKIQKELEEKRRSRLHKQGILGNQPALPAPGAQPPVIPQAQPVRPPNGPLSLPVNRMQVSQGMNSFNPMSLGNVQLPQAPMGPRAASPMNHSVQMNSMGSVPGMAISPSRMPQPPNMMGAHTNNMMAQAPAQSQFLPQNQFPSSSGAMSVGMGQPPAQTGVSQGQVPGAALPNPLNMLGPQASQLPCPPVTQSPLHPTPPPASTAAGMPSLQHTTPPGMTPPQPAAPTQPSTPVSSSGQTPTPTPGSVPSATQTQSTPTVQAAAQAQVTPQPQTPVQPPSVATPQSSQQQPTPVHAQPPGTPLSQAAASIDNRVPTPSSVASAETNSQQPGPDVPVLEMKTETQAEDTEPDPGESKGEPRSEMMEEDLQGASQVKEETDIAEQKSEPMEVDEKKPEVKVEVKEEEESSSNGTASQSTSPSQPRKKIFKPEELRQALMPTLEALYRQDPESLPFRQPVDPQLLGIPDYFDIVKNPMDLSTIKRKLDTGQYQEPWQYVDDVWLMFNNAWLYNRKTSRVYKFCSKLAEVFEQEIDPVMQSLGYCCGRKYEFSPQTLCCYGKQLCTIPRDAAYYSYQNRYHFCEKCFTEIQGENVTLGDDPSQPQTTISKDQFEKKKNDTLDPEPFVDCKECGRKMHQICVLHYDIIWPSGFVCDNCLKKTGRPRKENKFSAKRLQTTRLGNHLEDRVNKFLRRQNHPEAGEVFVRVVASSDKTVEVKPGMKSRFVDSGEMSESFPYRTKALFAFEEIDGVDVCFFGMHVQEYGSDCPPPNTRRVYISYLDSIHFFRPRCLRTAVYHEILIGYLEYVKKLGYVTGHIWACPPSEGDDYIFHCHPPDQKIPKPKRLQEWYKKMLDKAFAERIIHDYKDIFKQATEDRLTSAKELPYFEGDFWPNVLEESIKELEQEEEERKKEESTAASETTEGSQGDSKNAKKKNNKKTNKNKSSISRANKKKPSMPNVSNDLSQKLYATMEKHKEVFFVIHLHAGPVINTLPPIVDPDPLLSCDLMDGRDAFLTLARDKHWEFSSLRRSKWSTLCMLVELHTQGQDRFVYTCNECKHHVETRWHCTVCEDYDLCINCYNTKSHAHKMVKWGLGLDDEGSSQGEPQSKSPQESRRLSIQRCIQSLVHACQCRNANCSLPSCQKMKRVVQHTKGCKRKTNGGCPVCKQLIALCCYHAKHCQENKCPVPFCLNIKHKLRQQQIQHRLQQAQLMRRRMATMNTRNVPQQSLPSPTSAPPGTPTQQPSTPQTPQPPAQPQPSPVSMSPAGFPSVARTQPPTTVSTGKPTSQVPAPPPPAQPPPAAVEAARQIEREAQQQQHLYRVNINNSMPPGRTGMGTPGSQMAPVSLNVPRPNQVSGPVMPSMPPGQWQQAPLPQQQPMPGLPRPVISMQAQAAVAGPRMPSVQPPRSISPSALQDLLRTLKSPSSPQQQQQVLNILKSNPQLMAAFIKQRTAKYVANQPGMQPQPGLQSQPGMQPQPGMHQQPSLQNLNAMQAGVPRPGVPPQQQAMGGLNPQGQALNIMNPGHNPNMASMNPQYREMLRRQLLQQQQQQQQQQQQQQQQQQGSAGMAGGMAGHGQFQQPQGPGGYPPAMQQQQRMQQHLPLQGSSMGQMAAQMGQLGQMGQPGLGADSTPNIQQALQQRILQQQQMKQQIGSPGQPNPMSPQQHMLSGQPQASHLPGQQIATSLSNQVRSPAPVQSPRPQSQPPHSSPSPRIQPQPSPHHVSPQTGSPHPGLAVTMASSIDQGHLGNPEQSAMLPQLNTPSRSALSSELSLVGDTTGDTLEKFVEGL", "assay": "TOPFlash reporter system in SW480 cells (CBP-β-catenin binding)", "format": "cell-based", "conditions": "increasing concentrations", "description": "The effect of several compounds on CBP-β-catenin binding was tested using the TOPFlash reporter system in SW480 cells."}, "IGROV-1/CP": {"system": "IGROV-1/CP", "assay": "Colony inhibition assay, IGROV-1/CP", "format": "cell-based", "conditions": "80 cells/well"}, "[3]": {"system": "K562 imatinib resistant cells", "assay": "Cell proliferation/viability of K562 imatinib resistant cells, Imatinib mesylate +/- ICG-001", "format": "cell-based", "conditions": "in combination with Imatinib mesylate", "description": "as §2"}, "CD34+ CML blasts": {"system": "CD34+ CML blasts", "assay": "Colony formation (CFU) of CD34+ blasts from bone marrow of CML patients", "format": "cell-based", "conditions": "for total colony forming units (CFU): combination ICG-001 and imatinib vs control or either drug alone"}, "caspase3/7": {"system": "caspase3/7", "assay": "Caspase3/7 activation in MES-SA/Dx5 cells", "format": "cell-based, human", "conditions": "added to cells treated with 1 mg/ml or 5 mg/ml of Doxorubicin", "description": "as §2"}, "B16": {"system": "B16", "assay": "Colony inhibition assay, B16 melanoma", "format": "cell-based, mouse", "conditions": "B16, 80 cells/well", "description": "as §3, §4"}, "IGROV-1": {"system": "IGROV-1", "assay": "Colony inhibition assay, IGROV-1", "format": "cell-based", "conditions": "IGROV-1, 80 cells/well", "description": "as §3, §4, §5"}, "K562 cells": {"system": "K562 cells", "assay": "Differentiation and caspase activation in K562 cells", "format": "cell-based"}, "MDR-1 [4]": {"system": "MDR-1", "assay": "MDR-1/luciferase activity in isogenic HCT116 cell lines", "format": "cell-based", "text": "To further confirm the importance of the role of nuclear β-catenin in driving MDR-1 expression, isogenic HCT-116 cell lines were utilized (Waldmann 2002).\nMDR-1 transcriptional regulation in the isogenic HCT116 cell lines was also investigated. […] Transfection of p300 decreased MDR-1/luciferase activity below control levels in all 3 cell lines (FIG. 17A)."}, "normal CD34+ cells": {"system": "normal CD34+ cells", "assay": "Effect on normal CD34+ hematopoietic cells (cellularity, colony formation)", "format": "cell-based", "text": "This is the result of the emergence of leukemic drug resistant clones associated with increased nuclear β-catenin levels, a hallmark of increased TCF/β-catenin transcription (Weissman NEJM 2003). […] In sharp contrast, the control colonies were large and compact."}}, "note": "Entries after “also recorded” stand apart in the source; their conditions may differ."}
{"smiles": "O=C1[C@H](Cc2ccc(O)cc2)N2C(=O)CCN(C(=O)NCc3ccccc3)[C@H]2CN1Cc1cccc2ccccc12", "note": "[ICG-001]", "values": [{"measurement": "IC50", "setting": "MDR-1 [1]", "result": "~16", "unit": "µM"}, {"measurement": "decrease of cell proliferation/viability, combination vs either agent alone", "setting": "MES-SA/Dx5 cells", "result": "significantly more effective"}, {"measurement": "Average plating efficiency", "setting": "CP70; 0.625 μM", "result": 35, "unit": "%"}, {"measurement": "Average plating efficiency", "setting": "CP70; 1.25 μM", "result": 35, "unit": "%"}, {"measurement": "Average plating efficiency", "setting": "CP70; 2.5 μM", "result": 13, "unit": "%"}, {"measurement": "Average plating efficiency", "setting": "CP70; 5 μM", "result": 1, "unit": "%"}, {"measurement": "Average plating efficiency", "setting": "CP70; 10 μM", "result": 0, "unit": "%"}, {"measurement": "inhibition", "setting": "CP70; cisplatin-resistant line CP70, 5 μM", "result": "> 90", "unit": "%"}, {"measurement": "occupancy of the MDR-1 promoter by CBP", "setting": "MDR-1 promoter", "result": "blocked in a dose dependent fashion"}, {"measurement": "occupancy of the MDR-1 promoter by p300", "setting": "MDR-1 promoter; 25 uM ICG-001", "result": "occupancy increased"}, {"measurement": "COLONIES (n = 4) M +/− SD", "setting": "A2780; 0.625 μM ICG-001", "result": "74 +/− 4.7"}, {"measurement": "COLONIES (n = 4) M +/− SD", "setting": "A2780; 1.25 μM ICG-001", "result": "28 +/− 13.2"}, {"measurement": "COLONIES (n = 4) M +/− SD", "setting": "A2780; 2.5 μM ICG-001", "result": "0.25 +/− 0.5"}, {"measurement": "COLONIES (n = 4) M +/− SD", "setting": "A2780; 5 μM ICG-001", "result": 0}, {"measurement": "COLONIES (n = 4) M +/− SD", "setting": "A2780; 10 μM ICG-001", "result": 0}, {"measurement": "Average plating efficiency", "setting": "A2780; 0.625 μM", "result": 25, "unit": "%"}, {"measurement": "Average plating efficiency", "setting": "A2780; 1.25 μM", "result": 35, "unit": "%"}, {"measurement": "Average plating efficiency", "setting": "A2780; 2.5 μM", "result": 6, "unit": "%"}, {"measurement": "Average plating efficiency", "setting": "A2780; 5 μM", "result": 0, "unit": "%"}, {"measurement": "Average plating efficiency", "setting": "A2780; 10 μM", "result": 0, "unit": "%"}, {"measurement": "level of MDR-1 protein expression", "setting": "MDR-1 [2]", "result": "significantly reduced"}, {"measurement": "effect on CBP-β-catenin binding (TOPFlash reporter)", "setting": "CBP-β-catenin; listed as ICG-100", "result": "inhibited"}, {"measurement": "Average plating efficiency", "setting": "IGROV-1/CP; 0.625 μM", "result": 59, "unit": "%"}, {"measurement": "Average plating efficiency", "setting": "IGROV-1/CP; 1.25 μM", "result": 25, "unit": "%"}, {"measurement": "Average plating efficiency", "setting": "IGROV-1/CP; 2.5 μM", "result": 13, "unit": "%"}, {"measurement": "Average plating efficiency", "setting": "IGROV-1/CP; 5 μM", "result": 6, "unit": "%"}, {"measurement": "Average plating efficiency", "setting": "IGROV-1/CP; 10 μM", "result": 0, "unit": "%"}, {"measurement": "decrease of cell proliferation/viability, combination vs either agent alone", "setting": "[3]", "result": "significantly more effective"}, {"measurement": "total colony forming units (CFU)", "setting": "CD34+ CML blasts", "result": "most significant reduction"}, {"measurement": "total colony forming units (CFU)", "setting": "CD34+ CML blasts; listed as IGC-001", "result": "significant additive effect"}, {"measurement": "caspase3/7 activation", "setting": "caspase3/7", "result": "increased caspase3/7 activation significantly"}, {"measurement": "Average plating efficiency", "setting": "B16; 0.625 μM", "result": 24, "unit": "%"}, {"measurement": "Average plating efficiency", "setting": "B16; 1.25 μM", "result": 18, "unit": "%"}, {"measurement": "Average plating efficiency", "setting": "B16; 2.5 μM", "result": 3, "unit": "%"}, {"measurement": "Average plating efficiency", "setting": "B16; 5 μM", "result": 0, "unit": "%"}, {"measurement": "Average plating efficiency", "setting": "B16; 10 μM", "result": 0, "unit": "%"}, {"measurement": "Average plating efficiency", "setting": "IGROV-1; 0.625 μM", "result": 31, "unit": "%"}, {"measurement": "Average plating efficiency", "setting": "IGROV-1; 1.25 μM", "result": 24, "unit": "%"}, {"measurement": "Average plating efficiency", "setting": "IGROV-1; 2.5 μM", "result": 8, "unit": "%"}, {"measurement": "Average plating efficiency", "setting": "IGROV-1; 5 μM", "result": 1, "unit": "%"}, {"measurement": "Average plating efficiency", "setting": "IGROV-1; 10 μM", "result": 0, "unit": "%"}, {"measurement": "caspase activation", "setting": "K562 cells", "result": "not capase activation"}, {"measurement": "differentiation", "setting": "K562 cells", "result": "induced differentiation"}, {"measurement": "MDR-1/luciferase activity", "setting": "MDR-1 [4]; HCT-116 wild type", "result": "dose dependently decreased"}, {"measurement": "MDR-1/luciferase activity", "setting": "MDR-1 [4]; Hβ18(ko/*) cell line", "result": "dose dependently decreased"}, {"measurement": "MDR-1/luciferase activity", "setting": "MDR-1 [4]; Hβ92(wt/ko) cells", "result": "essentially no further reduction below basal levels"}, {"measurement": "colony formation of normal CD34+ hematopoietic cells", "setting": "normal CD34+ cells", "result": "did not affect colony formation"}, {"measurement": "total cellularity, CFU-Es and BFU-Es", "setting": "normal CD34+ cells", "result": "minimal effects"}, {"measurement": "adverse effects on normal CD34+ cells", "setting": "normal CD34+ cells; up to 20 μM", "result": "did not have significant adverse effects"}]}
{"smiles": "O=C1[C@H](Cc2ccc(O)cc2)N2C(=O)CCN(C(=O)NCc3ccccc3)[C@H]2CN1Cc1cccc2ccccc12", "note": "[PRI-004]", "values": [{"measurement": "effect on CBP-β-catenin binding (TOPFlash reporter)", "setting": "CBP-β-catenin", "result": "effective; also recorded: inhibited"}, {"measurement": "colony formation", "setting": "CD34+ CML blasts; 500 nM, FIG. 21C legend", "result": "completely blocks colony formation"}]}
